The text below walks through data of the supplement of paper PMC11208160.
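Further: IS621 recombinase and bridge RNA in Escherichia coli cells.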

The data set in a line: recombinant barcode read abundance after kanamycin selection (control-corrected) (log10(CPM+1)); higher = more efficient recombination; sequences stand for … in AGTGCAGAGAAAATCGGCCAGTTTTCTCTGCCTGCAGTCCGCATGCCGT…AGATTTATGCAGCGGACTGCCTTTCTCCCAAAGTGATAAACCGGACAGTATCATGGACCGGTTTTCCCGGTAATCCGTATTTGCAAGGTTGGTTTCACT; site = the 11-nt target. The essentials: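 Two replicates per condition were plated: chloramphenicol/ampicillin LB agar for the control, and chloramphenicol/ampicillin/kanamycin with 0.1 mM IPTG for selection. The pooled E. coli screen behind them paired targets with IS621 bridge RNA target-binding loops. Recombination efficiency is expressed from averaged, control-corrected barcode counts per million at recombinant junctions, as log10(CPM+1).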
Take “TGACGTCCTTGGGTTCTAACCTGTTGCCT (site TGACGTCCTAA)”: the “recombinant barcode read abundance (log10)” value is 0.455.
In the case of “TGACGTCCTTGGGTTCTAACCTGTTGCCT (site TGACGTCCTAC)” it was 0.315.
With “TGACGTCCTTGGGTTCTAACCTGTTGCCT (site TGACGTCCTAG)”, the “recombinant barcode read abundance (log10)” value is 0.253.
In the case of “TGACGTCCTTGGGTTCTAACCTGTTGCCT (site TGACGTCCTAT)” it was 0.057.
For “TGACGTCCTTGGGTTCTAACCTGTTGCGT (site TGACGTCCTAA)”, the “recombinant barcode read abundance (log10)” value came to 0.0894.
On to “TGACGTCCTTGGGTTCTAACCTGTTGCGT (site TGACGTCCTAC)”, for which the “recombinant barcode read abundance (log10)” value was 1.72.
To “TGACGTCCTTGGGTTCTAACCTGTTGCGT (site TGACGTCCTAG)” belongs 0.0763; to “TGACGTCCTTGGGTTCTAACCTGTTGCGT (site TGACGTCCTAT)”, 0.286.
As for “TGACGTTCTTGGGTTCTAACCTGTTGCCT (site TGACCTTCTAG)”, the “recombinant barcode read abundance (log10)” value was determined as 0.189.
In the case of “TGACGTTCTTGGGTTCTAACCTGTTGCCT (site TGACGTTCTAG)” it was 0.313; in that of “TGAGAGACTTGGGTTCTAACCTGTTGCGT (site ATGAGTCCTTT)”, 0.0989.
As for “TGAGAGACTTGGGTTCTAACCTGTTGCGT (site TGAGAGACTAC)”, the “recombinant barcode read abundance (log10)” value amounted to 2.94.
In the case of “TGAGGTGCTTGGGTTCTAACCTGTTGCCT (site GGAGGGGCTAG)” it was 0.193; in that of “TGAGGTGCTTGGGTTCTAACCTGTTGCCT (site TGAGGTGCTAG)”, 0.818; in that of “TGATCCACTTGGGTTCTAACCTGTTGCCT (site AGATCCACTAG)”, 0.0667.
For “TGATCCACTTGGGTTCTAACCTGTTGCCT (site CGATCCACTAG)”, the “recombinant barcode read abundance (log10)” value was found to be 0.0881.
With “TGATCCACTTGGGTTCTAACCTGTTGCCT (site GGATCCACTAG)”, the “recombinant barcode read abundance (log10)” value is 0.0751.
To “TGATCCACTTGGGTTCTAACCTGTTGCCT (site TGATCCACTAG)” belongs 0.596.
To “TGATCTACTTGGGTTCTAACCTGTTGCTT (site TGATCTACTAA)” belongs 0.0729; to “TGATCTACTTGGGTTCTAACCTGTTGCTT (site TGCTCTACTAA)”, 0.0846; to “TGATCTACTTGGGTTCTAACCTGTTGCTT (site TGGTCTACTAA)”, 0.0447.
To “TGATCTACTTGGGTTCTAACCTGTTGCTT (site TGTTCTACTAA)” belongs 0.0588; to “TGCAAGTCTTGGGTTCTAACCTGTTGCCT (site TGCAAGTCTAG)”, 0.361; to “TGCAAGTCTTGGGTTCTAACCTGTTGCCT (site TGCGAGTCTAG)”, 0.137.
For the sequence “TGCACCTCTTGGGTTCTAACCTGTTGCTA (site CAATAGACTAG)”, the “recombinant barcode read abundance (log10)” value came out at 0.0267.
To “TGCACCTCTTGGGTTCTAACCTGTTGCTA (site TGCACCTCTTA)” belongs 0.541.
Take “TGCCAATCTTGGGTTCTAACCTGTTGCCT (site TGCCAATCTAG)”: the “recombinant barcode read abundance (log10)” value is 0.242.
In the case of “TGCCAATCTTGGGTTCTAACCTGTTGCCT (site TTCCAATCTTG)” it was 0.0187.
Turning to “TGCCATCCTTGGGTTCTAACCTGTTGCAT (site AGCCATCCTAT)”, the “recombinant barcode read abundance (log10)” value came to 0.111.
On to “TGCCATCCTTGGGTTCTAACCTGTTGCAT (site TGCCATCCTAT)”, for which the “recombinant barcode read abundance (log10)” value stood at 0.544.
To “TGCCTCTCTTGGGTTCTAACCTGTTGCCT (site GGCTTCTCTAG)” belongs 0.0915; to “TGCCTCTCTTGGGTTCTAACCTGTTGCCT (site TGCCTCTCTAG)”, 0.172.
With “TGCCTGCCTTGGGTTCTAACCTGTTGCAG (site ATAGAATCTGA)”, the “recombinant barcode read abundance (log10)” value is 0.245.
Take “TGCCTGCCTTGGGTTCTAACCTGTTGCAG (site TGCCTGCCTCT)”: the “recombinant barcode read abundance (log10)” value was determined as 0.0105.
To “TGCGAGTCTTGGGTTCTAACCTGTTGCCT (site TGCAAGTCTAG)” belongs 0.626.
On to “TGCGAGTCTTGGGTTCTAACCTGTTGCCT (site TGCGAGTCTAG)”, for which the “recombinant barcode read abundance (log10)” value was determined as 1.12.
For the sequence “TGCGCCACTTGGGTTCTAACCTGTTGCCT (site TGCGCAACTAG)”, the “recombinant barcode read abundance (log10)” value amounted to 0.113.
In the case of “TGCGCCACTTGGGTTCTAACCTGTTGCCT (site TGCGCCACTAG)” it was 0.517; in that of “TGCGCCACTTGGGTTCTAACCTGTTGCCT (site TGCGCGACTAG)”, 0.0341.
As for “TGCGCCACTTGGGTTCTAACCTGTTGCCT (site TGCGCTACTAG)”, the “recombinant barcode read abundance (log10)” value worked out at 0.0797.
As for “TGCGTCACTTGGGTTCTAACCTGTTGCGT (site TGCGTCACTAC)”, the “recombinant barcode read abundance (log10)” value turned out to be 1.56.
In the case of “TGCGTCACTTGGGTTCTAACCTGTTGCGT (site TGCGTTCCTAC)” it was 0.0906.
In the case of “TGCGTCGCTTGGGTTCTAACCTGTTGCCT (site AGCGTCGCTAG)” it was 0.149; in that of “TGCGTCGCTTGGGTTCTAACCTGTTGCCT (site TGCGTCGCTAG)”, 0.687.
“TGCTAAGCTTGGGTTCTAACCTGTTGCTG (site TCCTAAGCTCC)”: the “recombinant barcode read abundance (log10)” value came out at 0.288.
As for “TGCTAAGCTTGGGTTCTAACCTGTTGCTG (site TGCTAAGCTCA)”, the “recombinant barcode read abundance (log10)” value was 0.16.
In the case of “TGCTACCCTTGGGTTCTAACCTGTTGCCT (site TACTACCCTAG)” it was 0.81; in that of “TGCTACCCTTGGGTTCTAACCTGTTGCCT (site TCCTACCCTAG)”, 0.367; in that of “TGCTACCCTTGGGTTCTAACCTGTTGCCT (site TGCTACCCTAG)”, 0.427.
In the case of “TGCTACCCTTGGGTTCTAACCTGTTGCCT (site TTCTACCCTAG)” it was 0.213.
To “TGCTGATCTTGGGTTCTAACCTGTTGCCT (site AGCTGATCTAG)” belongs 0.114; to “TGCTGATCTTGGGTTCTAACCTGTTGCCT (site CGCTGATCTAG)”, 0.159.
Regarding “TGCTGATCTTGGGTTCTAACCTGTTGCCT (site GGCTGATCTAG)”, the “recombinant barcode read abundance (log10)” value turned out to be 0.158.
In the case of “TGCTGATCTTGGGTTCTAACCTGTTGCCT (site TGCTGATCTAG)” it was 0.335; in that of “TGCTGTACTTGGGTTCTAACCTGTTGCCT (site TGCTGTACTAG)”, 0; in that of “TGCTGTACTTGGGTTCTAACCTGTTGCCT (site TGCTGTCCTAG)”, 0.0484.
In the case of “TGCTGTACTTGGGTTCTAACCTGTTGCCT (site TGCTGTGCTAG)” it was 0.0772; in that of “TGCTGTACTTGGGTTCTAACCTGTTGCCT (site TGCTGTTCTAG)”, 0.0131; in that of “TGCTGTTCTTGGGTTCTAACCTGTTGCCT (site TGCTGTACTAG)”, 0.0922.
With “TGCTGTTCTTGGGTTCTAACCTGTTGCCT (site TGCTGTCCTAG)”, the “recombinant barcode read abundance (log10)” value was 0.212.
In the case of “TGCTGTTCTTGGGTTCTAACCTGTTGCCT (site TGCTGTGCTAG)”, the “recombinant barcode read abundance (log10)” value came to 0.241.
Turning to “TGCTGTTCTTGGGTTCTAACCTGTTGCCT (site TGCTGTTCTAG)”, the “recombinant barcode read abundance (log10)” value amounted to 0.187.
As to “TGCTTACCTTGGGTTCTAACCTGTTGCCT (site AGCTTACCTAG)”, the “recombinant barcode read abundance (log10)” value was determined as 0.0889.
To “TGCTTACCTTGGGTTCTAACCTGTTGCCT (site CGCTTACCTAG)” belongs 0.332; to “TGCTTACCTTGGGTTCTAACCTGTTGCCT (site GGCTTACCTAG)”, 0.185; to “TGCTTACCTTGGGTTCTAACCTGTTGCCT (site TGCTTACCTAG)”, 0.282.
On to “TGGAAGTCTTGGGTTCTAACCTGTTGCTT (site TGAAAGCCTAA)”, for which the “recombinant barcode read abundance (log10)” value was found to be 0.
To “TGGAAGTCTTGGGTTCTAACCTGTTGCTT (site TGGAAGTCTAA)” belongs 0.418; to “TGGAATTCTTGGGTTCTAACCTGTTGCTT (site TGGAATTCTAA)”, 0.0863.
In the case of “TGGAATTCTTGGGTTCTAACCTGTTGCTT (site TGGACTTCTAA)” it was 0.0255; in that of “TGGACCACTTGGGTTCTAACCTGTTGCCT (site TGGAACACTAG)”, 0.0728.
For the sequence “TGGACCACTTGGGTTCTAACCTGTTGCCT (site TGGACCACTAG)”, the “recombinant barcode read abundance (log10)” value was 0.765.
In the case of “TGGACCACTTGGGTTCTAACCTGTTGCCT (site TGGAGCACTAG)”, the “recombinant barcode read abundance (log10)” value came to 0.0755.
Regarding “TGGACCACTTGGGTTCTAACCTGTTGCCT (site TGGATCACTAG)”, the “recombinant barcode read abundance (log10)” value amounted to 0.0342.
For “TGGACTACTTGGGTTCTAACCTGTTGCTC (site CTACAACCTCT)”, the “recombinant barcode read abundance (log10)” value was found to be 0.209.
To “TGGACTACTTGGGTTCTAACCTGTTGCTC (site TGGACTACTGA)” belongs 0.195; to “TGGACTTCTTGGGTTCTAACCTGTTGCTG (site TGGACTTCTCA)”, 0.0836.
